{"source": "patent EP0523769B1", "about": "“Gram-positive alkaliphilic microorganisms” (GENENCOR INTERNATIONAL, INC., priority 1991, dated 1993)", "tested_on": "Gram-positive alkaliphilic bacteria", "experiment": "Antibiotic sensitivity, susceptibility test discs (characters 84-105)", "type": "cell-based", "data": [{"compound": "NC[C@@H]1O[C@H](O[C@H]2[C@@H](O)[C@H](O[C@@H]3[C@@H](O)[C@H](N)C[C@H](N)[C@H]3O[C@H]3O[C@H](CN)[C@@H](O)[C@H](O)[C@H]3N)O[C@@H]2CO)[C@H](N)[C@@H](O)[C@@H]1O", "note": "[Neomycin]", "values": [{"measurement": "Percentage Positive States, antibiotic sensitivity", "setting": "CLUSTER 1", "result": 0, "unit": "%"}, {"measurement": "Percentage Positive States, antibiotic sensitivity", "setting": "CLUSTER 2", "result": 0, "unit": "%"}, {"measurement": "Percentage Positive States, antibiotic sensitivity", "setting": "CLUSTER 3", "result": 0, "unit": "%"}, {"measurement": "Percentage Positive States, antibiotic sensitivity", "setting": "CLUSTER 4", "result": 50, "unit": "%"}, {"measurement": "Percentage Positive States, antibiotic sensitivity", "setting": "CLUSTER 5", "result": 17, "unit": "%"}, {"measurement": "Percentage Positive States, antibiotic sensitivity", "setting": "CLUSTER 6", "result": 0, "unit": "%"}]}, {"compound": "Gentamycin", "values": [{"measurement": "Percentage Positive States, antibiotic sensitivity", "setting": "CLUSTER 1", "result": 60, "unit": "%"}, {"measurement": "Percentage Positive States, antibiotic sensitivity", "setting": "CLUSTER 2", "result": 0, "unit": "%"}, {"measurement": "Percentage Positive States, antibiotic sensitivity", "setting": "CLUSTER 3", "result": 50, "unit": "%"}, {"measurement": "Percentage Positive States, antibiotic sensitivity", "setting": "CLUSTER 4", "result": 50, "unit": "%"}, {"measurement": "Percentage Positive States, antibiotic sensitivity", "setting": "CLUSTER 5", "result": 50, "unit": "%"}, {"measurement": "Percentage Positive States, antibiotic sensitivity", "setting": "CLUSTER 6", "result": 25, "unit": "%"}]}, {"compound": "Polymixin", "values": [{"measurement": "Percentage Positive States, antibiotic sensitivity", "setting": "CLUSTER 1", "result": 40, "unit": "%"}, {"measurement": "Percentage Positive States, antibiotic sensitivity", "setting": "CLUSTER 2", "result": 20, "unit": "%"}, {"measurement": "Percentage Positive States, antibiotic sensitivity", "setting": "CLUSTER 3", "result": 0, "unit": "%"}, {"measurement": "Percentage Positive States, antibiotic sensitivity", "setting": "CLUSTER 4", "result": 0, "unit": "%"}, {"measurement": "Percentage Positive States, antibiotic sensitivity", "setting": "CLUSTER 5", "result": 0, "unit": "%"}, {"measurement": "Percentage Positive States, antibiotic sensitivity", "setting": "CLUSTER 6", "result": 0, "unit": "%"}]}, {"compound": "Tetracyclin", "values": [{"measurement": "Percentage Positive States, antibiotic sensitivity", "setting": "CLUSTER 1", "result": 80, "unit": "%"}, {"measurement": "Percentage Positive States, antibiotic sensitivity", "setting": "CLUSTER 2", "result": 60, "unit": "%"}, {"measurement": "Percentage Positive States, antibiotic sensitivity", "setting": "CLUSTER 3", "result": 0, "unit": "%"}, {"measurement": "Percentage Positive States, antibiotic sensitivity", "setting": "CLUSTER 4", "result": 100, "unit": "%"}, {"measurement": "Percentage Positive States, antibiotic sensitivity", "setting": "CLUSTER 5", "result": 100, "unit": "%"}, {"measurement": "Percentage Positive States, antibiotic sensitivity", "setting": "CLUSTER 6", "result": 25, "unit": "%"}]}]}
